Three molecules from US20220009920A1 (GB005, Inc., priority 2020, published 2022) can be followed below.

Common to all, as to experiment: Large panel kinase profiling
Holding throughout (format): biochemical
Holding throughout (details): 1 μM test article, 1 mM ATP

One test concerns the target T1, BRSK1 (Homo sapiens, UniProt Q8TDC3).
T1 sequence (Q8TDC3 1-778): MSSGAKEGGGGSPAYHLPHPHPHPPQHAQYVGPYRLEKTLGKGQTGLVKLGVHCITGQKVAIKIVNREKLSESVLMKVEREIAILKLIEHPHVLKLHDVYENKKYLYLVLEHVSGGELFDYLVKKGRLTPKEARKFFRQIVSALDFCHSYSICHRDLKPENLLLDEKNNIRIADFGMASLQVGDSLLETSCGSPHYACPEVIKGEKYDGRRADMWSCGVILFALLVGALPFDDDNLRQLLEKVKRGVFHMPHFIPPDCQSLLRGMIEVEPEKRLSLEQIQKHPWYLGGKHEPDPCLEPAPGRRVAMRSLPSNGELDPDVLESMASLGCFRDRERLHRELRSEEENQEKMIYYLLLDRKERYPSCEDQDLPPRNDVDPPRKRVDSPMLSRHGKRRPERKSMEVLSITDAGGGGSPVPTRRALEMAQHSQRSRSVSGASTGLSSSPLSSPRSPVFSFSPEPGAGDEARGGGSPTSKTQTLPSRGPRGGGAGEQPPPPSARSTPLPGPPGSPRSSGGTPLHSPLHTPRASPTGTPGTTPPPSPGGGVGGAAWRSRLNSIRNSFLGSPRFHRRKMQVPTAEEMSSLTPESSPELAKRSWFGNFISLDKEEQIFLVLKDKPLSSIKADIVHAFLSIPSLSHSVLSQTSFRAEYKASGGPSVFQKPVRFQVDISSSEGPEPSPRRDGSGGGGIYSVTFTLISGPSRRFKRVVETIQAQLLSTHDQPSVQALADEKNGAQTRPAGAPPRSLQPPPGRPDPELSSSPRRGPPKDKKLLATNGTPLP
A digest of the protocol: (§1)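 Single-point profiling at 1 μM test article used 1 mM ATP. Phosphorylation was tracked by sensor fluorescence increase over time at 30° C., with readings each minute at excitation 360 nm and emission 485 nm.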

The target of another test is MAP3K11 (Homo sapiens, UniProt Q16584). A digest of the protocol:
as §1

Another test addresses T2, STK11/LKB1 (Homo sapiens, UniProt Q15831).
T2 construct: AssayQuant Technologies, Inc. (contract assay)
T2 sequence (Q15831 1-433): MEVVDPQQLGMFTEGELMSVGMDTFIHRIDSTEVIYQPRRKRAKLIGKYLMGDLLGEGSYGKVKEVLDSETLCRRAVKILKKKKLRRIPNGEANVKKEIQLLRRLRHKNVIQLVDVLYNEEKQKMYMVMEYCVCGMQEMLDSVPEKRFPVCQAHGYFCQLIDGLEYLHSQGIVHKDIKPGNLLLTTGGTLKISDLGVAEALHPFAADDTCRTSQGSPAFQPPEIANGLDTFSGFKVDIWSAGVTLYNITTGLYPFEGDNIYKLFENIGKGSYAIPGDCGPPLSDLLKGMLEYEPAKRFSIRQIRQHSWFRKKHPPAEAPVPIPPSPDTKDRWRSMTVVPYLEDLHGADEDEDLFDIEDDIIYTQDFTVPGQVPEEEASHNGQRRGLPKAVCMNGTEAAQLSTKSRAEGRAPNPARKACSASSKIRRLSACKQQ
T2 sequence (Q7RTN6 1-431 partner): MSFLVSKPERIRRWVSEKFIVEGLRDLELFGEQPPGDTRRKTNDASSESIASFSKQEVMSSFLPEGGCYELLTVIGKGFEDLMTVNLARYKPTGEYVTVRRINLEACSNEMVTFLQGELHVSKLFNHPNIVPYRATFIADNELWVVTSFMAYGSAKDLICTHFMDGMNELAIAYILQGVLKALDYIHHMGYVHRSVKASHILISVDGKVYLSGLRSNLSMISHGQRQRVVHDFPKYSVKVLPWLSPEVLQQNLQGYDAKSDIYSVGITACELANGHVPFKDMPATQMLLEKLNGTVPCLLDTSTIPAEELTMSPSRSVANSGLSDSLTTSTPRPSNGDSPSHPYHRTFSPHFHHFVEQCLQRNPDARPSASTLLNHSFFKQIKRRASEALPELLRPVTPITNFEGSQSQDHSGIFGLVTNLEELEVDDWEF
T2 sequence (Q9Y376 1-341 partner): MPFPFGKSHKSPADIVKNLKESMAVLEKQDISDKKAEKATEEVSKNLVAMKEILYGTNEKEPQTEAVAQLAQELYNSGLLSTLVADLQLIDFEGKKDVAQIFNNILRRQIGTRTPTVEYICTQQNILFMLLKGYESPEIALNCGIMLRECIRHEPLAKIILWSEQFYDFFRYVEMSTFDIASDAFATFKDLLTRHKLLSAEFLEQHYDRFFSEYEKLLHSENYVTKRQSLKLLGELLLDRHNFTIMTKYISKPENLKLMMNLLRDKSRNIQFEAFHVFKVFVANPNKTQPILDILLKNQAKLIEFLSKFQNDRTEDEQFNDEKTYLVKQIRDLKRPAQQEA
A digest of the protocol:
as §1

Another test deals with T3, STK3/MST2 (Homo sapiens, UniProt Q13188).
T3 construct: AssayQuant Technologies, Inc. (contract assay)
T3 sequence (Q13188 1-491): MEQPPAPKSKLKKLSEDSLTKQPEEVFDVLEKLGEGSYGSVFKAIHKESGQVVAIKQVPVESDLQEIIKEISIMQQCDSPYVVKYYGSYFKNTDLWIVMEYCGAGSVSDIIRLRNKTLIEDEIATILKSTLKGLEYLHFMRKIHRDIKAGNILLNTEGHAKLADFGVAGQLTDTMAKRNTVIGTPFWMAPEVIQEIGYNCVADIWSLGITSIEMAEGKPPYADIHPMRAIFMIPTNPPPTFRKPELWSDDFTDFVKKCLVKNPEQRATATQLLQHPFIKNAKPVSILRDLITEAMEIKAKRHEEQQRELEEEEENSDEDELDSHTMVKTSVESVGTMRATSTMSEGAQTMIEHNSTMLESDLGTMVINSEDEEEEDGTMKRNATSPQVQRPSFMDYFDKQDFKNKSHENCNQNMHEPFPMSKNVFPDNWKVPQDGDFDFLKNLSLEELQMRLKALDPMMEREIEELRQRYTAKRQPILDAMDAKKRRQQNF
A digest of the protocol:
as §1

A further test addresses T4, YES (Homo sapiens, UniProt P07947).
T4 construct: AssayQuant Technologies, Inc. (contract laboratory that ran the panel)
An outline of the steps: as §1

Sequence of MAP3K11 (Q16584 whole entry, species assumed): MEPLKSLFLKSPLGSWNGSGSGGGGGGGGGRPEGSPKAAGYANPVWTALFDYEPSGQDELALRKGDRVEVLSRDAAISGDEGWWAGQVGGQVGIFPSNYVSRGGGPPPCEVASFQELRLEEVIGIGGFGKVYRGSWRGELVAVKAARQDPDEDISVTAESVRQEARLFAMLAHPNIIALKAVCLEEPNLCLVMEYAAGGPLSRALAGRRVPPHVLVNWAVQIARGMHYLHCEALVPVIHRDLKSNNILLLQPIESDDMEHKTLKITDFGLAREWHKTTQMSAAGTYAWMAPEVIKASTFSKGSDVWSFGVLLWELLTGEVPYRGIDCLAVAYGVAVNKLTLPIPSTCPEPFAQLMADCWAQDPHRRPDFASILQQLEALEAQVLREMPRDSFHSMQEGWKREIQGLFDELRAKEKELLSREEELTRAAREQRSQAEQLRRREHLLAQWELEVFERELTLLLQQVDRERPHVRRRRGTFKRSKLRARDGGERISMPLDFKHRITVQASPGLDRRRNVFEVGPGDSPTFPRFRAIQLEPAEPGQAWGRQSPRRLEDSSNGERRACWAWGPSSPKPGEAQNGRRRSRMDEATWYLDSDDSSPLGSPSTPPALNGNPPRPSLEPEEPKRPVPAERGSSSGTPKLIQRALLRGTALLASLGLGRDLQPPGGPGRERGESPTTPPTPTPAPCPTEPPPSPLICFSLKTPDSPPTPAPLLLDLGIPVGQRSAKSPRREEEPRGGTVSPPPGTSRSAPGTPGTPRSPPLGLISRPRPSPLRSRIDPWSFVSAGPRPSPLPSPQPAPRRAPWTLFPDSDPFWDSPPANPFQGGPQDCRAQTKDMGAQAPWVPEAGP
T4 sequence (P07947 whole entry, species assumed): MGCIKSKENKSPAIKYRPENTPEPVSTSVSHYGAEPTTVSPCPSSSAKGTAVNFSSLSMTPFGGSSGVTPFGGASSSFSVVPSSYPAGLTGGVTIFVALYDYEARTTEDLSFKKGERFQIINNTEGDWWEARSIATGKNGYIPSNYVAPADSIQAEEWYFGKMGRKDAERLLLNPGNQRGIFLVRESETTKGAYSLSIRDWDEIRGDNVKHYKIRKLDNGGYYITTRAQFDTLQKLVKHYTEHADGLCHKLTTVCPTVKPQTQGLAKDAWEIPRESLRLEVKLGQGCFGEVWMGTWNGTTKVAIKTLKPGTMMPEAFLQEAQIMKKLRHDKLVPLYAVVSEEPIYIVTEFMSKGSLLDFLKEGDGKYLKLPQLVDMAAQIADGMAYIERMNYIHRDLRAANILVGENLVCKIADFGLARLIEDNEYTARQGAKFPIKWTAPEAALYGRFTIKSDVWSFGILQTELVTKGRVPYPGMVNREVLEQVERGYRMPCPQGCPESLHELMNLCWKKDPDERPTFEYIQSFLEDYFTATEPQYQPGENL

Regarding `C=CC(=O)N1CCC[C@@H](c2c(F)cc(C(N)=O)c3[nH]c4c(c23)CCC4)C1` [Compound 10-2, (S)-8-(1-acryloylpiperidin-3-yl)-7-fluoro-1,2,3,4-tetrahydrocyclo-penta[b]indole-5-carboxamide], the inhibition (usually the change of the read-out against control, counted positive when it falls) at 1 µM against BRSK1 is 10.1%; against MAP3K11, -3.2%; against STK11/LKB1 it was -6%; against STK3/MST2, -14.4%; against YES it was 23.9%.

With `C=CC(=O)N1CCCC(c2c(F)cc(C(N)=O)c3[nH]c4c(c23)CCCCC4)C1` (single isomer, unassigned) [Compound 5-6], the inhibition at 1 µM was -30.9% on BRSK1; 16% against MAP3K11; 23.5% on STK11/LKB1; -13.7% on STK3/MST2; 8.8% against YES.

`C=CC(=O)N1CCC[C@@H](c2c(F)cc(C(N)=O)c3[nH]c4c(c23)CC2(CC4)CC2)C1` [Compound 6-2, (S)-5-(1-acryloylpiperidin-3-yl)-6-fluoro-1,2,4,9-tetrahydrospiro[carbazole-3,1′-cyclopropane]-8-carboxamide]: the inhibition at 1 µM against BRSK1 was -13%; at MAP3K11, 17.6%; against STK11/LKB1, -4.3%; against STK3/MST2, -25.3%; at YES it was 27%.
